From article PMC2254147, “Novel Triazine JPC-2067-B Inhibits Toxoplasma gondii In Vitro and In Vivo” (PLoS Neglected Tropical Diseases, 2008)
Entries after “also recorded” stand apart in the source; their conditions may differ.

Experiments:
[1] = biological target: T1, Mav DHFR (Mycobacterium avium, UniProt O30463); test: Spectrophotometric DHFR assay, Mycobacterium avium-intracellulare DHFR; assay type: biochemical; conditions: 37°C; (95% confidence limits)
T1 construct: the bacteria were centrifuged, sonicated, and the 100,000 Xg supernate was stored under liquid nitrogen until assay; endogenous in cells; host or cells: M. avium-intracellulare clinical isolate (serovar 4), Indiana University School of Medicine
T1 sequence (O30463 1-181): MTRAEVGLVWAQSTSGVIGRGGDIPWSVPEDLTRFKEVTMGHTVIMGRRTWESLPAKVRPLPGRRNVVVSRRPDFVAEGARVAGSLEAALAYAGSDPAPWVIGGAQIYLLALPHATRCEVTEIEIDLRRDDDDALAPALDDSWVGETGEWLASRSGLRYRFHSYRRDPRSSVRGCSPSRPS
Experimental: Mycobacterium avium-intracellulare used in these studies was a clinical isolate (serovar 4) from Indiana University School of Medicine, Department of Pathology. The strain was maintained on Lowenstein-Jensen slants (Baxter Scientific) grown at room temperature. To produce enzyme, the organism was grown in Middlebrook 7H-9 liquid medium at 37°C to an OD660 of 0.5 to 0.7, which took several weeks. At harvest, the bacteria were centrifuged, sonicated, and the 100,000 Xg supernate was stored under liquid nitrogen until assay. These supernates contained both DHFR and dihydroopteroate synthetase activity.
The spectrophotometric assay for DHFR was optimized for temperature and concentration of substrate and cofactor for each enzyme. The standard assay contained Na phosphate buffer pH 7.4 (40.7 mM), 2-mercaptoethanol (8.9 mM), NADPH (0.117 mM), dihydrofolic acid (0.09 mM), KCL (150 mM), and sufficient enzyme to produce a change in OD340 of 0.035/minute at 37°C. The reaction was continuously recorded for 3 minutes. Activity under these conditions was linear with enzyme concentration over a 4-fold range. The low background activity in the absence of dihydrofolic acid was subtracted from all rates.
DHFR was assayed with several concentrations of inhibitor to produce rates ranging from 1 to 90% of the uninhibited rate. At least three concentrations were required for calculation; most curves contained five concentrations.

[2] = test system: human foreskin fibroblasts (HFF); test: Toxicity for host cells, 3H thymidine incorporation by non-confluent HFF; assay type: cell-based; conditions: increasing concentrations, tested concomitantly with T. gondii
[3] = biological target: T2, TgDHFR (Toxoplasma gondii, UniProt Q07422); test: biochemical; assay type: biochemical; conditions: 23°C
T2 construct: DHFR from T. gondii was isolated directly from RH strain T. gondii grown in culture; endogenous in cells; host or cells: RH strain T. gondii grown on CHO/dhfr- cells
T2 sequence (Q07422 1-610): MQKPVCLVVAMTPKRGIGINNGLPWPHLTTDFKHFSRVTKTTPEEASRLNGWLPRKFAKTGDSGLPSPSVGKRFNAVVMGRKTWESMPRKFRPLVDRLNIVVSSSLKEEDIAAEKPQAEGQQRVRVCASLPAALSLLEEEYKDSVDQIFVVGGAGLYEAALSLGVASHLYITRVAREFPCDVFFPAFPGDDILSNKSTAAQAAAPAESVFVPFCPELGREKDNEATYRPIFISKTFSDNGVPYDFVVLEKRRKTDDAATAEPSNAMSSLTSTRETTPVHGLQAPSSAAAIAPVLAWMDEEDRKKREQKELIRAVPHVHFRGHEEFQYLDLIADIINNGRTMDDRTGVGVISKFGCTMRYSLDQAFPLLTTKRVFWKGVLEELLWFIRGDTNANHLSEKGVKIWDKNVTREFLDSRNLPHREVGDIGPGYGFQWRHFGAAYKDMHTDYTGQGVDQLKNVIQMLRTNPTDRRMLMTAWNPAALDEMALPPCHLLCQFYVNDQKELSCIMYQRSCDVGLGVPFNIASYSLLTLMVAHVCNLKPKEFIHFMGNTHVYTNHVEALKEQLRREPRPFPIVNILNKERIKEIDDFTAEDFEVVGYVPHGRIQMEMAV
Source text: DHFR from T. gondii prepared as above was also directly compared to purified recombinant P. falciparum DHFR (pfDHFR) and purified recombinant human DHFR (hDHFR). The hDHFR was from pDFR plasmid. The enzyme was purified following ammonium sulfate precipitation, methotrexate:agarose affinity chromatography, and finally a Superdex 200 size exclusion column. The pfDHFR isolation methods were those reported previously,[44]. […] The same buffer as used in the other assays comparing T. gondii DHFR with DHFRs from rat liver P. carinii and M. avium intracellulare was used but the maximal activity, temperature, and length of observation were adjusted for assays on the specific plate reader. […] The reaction was setup at 23°C, the plate loaded, and the OD340 recorded at 20 second intervals for 10 minutes. The first 8 minutes were used to generate linear fit slopes in Excel. […] Results are expressed as the percent of control activity versus log concentration of inhibitor. Prism 5.0 was used to generate curves from 12 different concentrations of inhibitor using a non-linear fit method.

[4] = test system: Tachyzoites of the RH strain of T. gondii; test: T. gondii tachyzoite growth in human foreskin fibroblasts, 3H uracil uptake and microscopy; assay type: cell-based; conditions: Toxoplasma gondii, Fibroblast, RH strain tachyzoites in HFF, 3H uracil uptake after four days in culture
Experimental: Tachyzoites of the RH strain of T. gondii were passaged in human foreskin fibroblasts (HFF). They were used to infect fibroblasts to determine antimicrobial effects of candidate compounds. Outcome was assessed with microscopy and uracil uptake after four days in culture as described,[12],[13]. Briefly, for testing of inhibitors in vitro against T. gondii tachyzoites, four-day old confluent cultures of human foreskin fibroblasts (HFF) were infected with 10^3 tachyzoites and cultured for 1 hour to allow parasite invasion. Inhibitor was added and cells cultured for 3 days. They were supplemented with ^3H uracil and incubation extended for a further day, whereupon uracil incorporation into cells and thus parasite growth were assessed by liquid scintillation counting,[12],[13]. Studies were performed with inhibitors as described in [8],[12],[13].
For in vitro studies, a stock solution of JPC-2067-B was initially dissolved in 100% dimethyl sulfoxide (DMSO) and then diluted in complete tissue culture medium (IMDM-C) [IMDM with NaHCO3 and 25 mM Hepes (Cambrex Bio Science, Walkersville, MD), 10% fetal bovine serum (Gibco, Grand Island, N.Y.), 1× antibiotic-antimycotic solution (Cellgro, Mediatech), and 2 mM L-glutamine (Gibco). Working concentrations of JPC-2067-B were made using IMDM-C. Concentrations measured ranged from 10 to 100 nM. […]

[5] = test system: tester strains TA97, TA98, TA100, TA102 and TA1535; test: Ames Test with and without microsomal activation
Experimental: A 42-day toxicology study in CD-1 mice at doses up to 98 mg/kg evaluating well-being, weight gain, and histopathology was performed. […] 7.5 mg/kg was established as the NOAEL (No Observed Adverse Effect Level). JPC-2056 and JPC-2067 were assayed in the Ames Test with and without microsomal activation with tester strains TA97, TA98, TA100, TA102 and TA1535.

CC1(C)N=C(N)N=C(N)N1OCCCOc1ccc(OC(F)(F)F)cc1Cl [JPC-2067-B, 4,6-diamino-1,2-dihydro-2,2-dimethyl-1-(3′(2-chloro-, 4-trifluoromethoxyphenoxy)propyloxy)-1,3,5-triazine]
IC50 [1]: 3.75 nM | Toxicity for host cells, uptake of tritiated thymidine by nonconfluent fibroblasts [2]: no toxic effect on host cells; also recorded: no toxicity | IC50 ([3]; Tg lysate, (95% Confidence Intervals)): 32 nM | Ratio of IC50 values hDHFR/tgDHFR ([3]; high throughput method): 4.6 | IC50 [4]: 20 nM | IC90 ([4]; read-out: IC90, T. gondii tachyzoites in tissue culture): 50 nM | Ames Test, with and without microsomal activation [5]: No activity | Ames w/o Activation [5]: Not Active ^* | Ames with Activation [5]: Not Active ^*
